Source: PubChem BioAssay AID365 (MTDP, 2006)
Calls of active or inactive are those of the source. How the calls were made is not given here.

What follows are compounds tested against Ribonuclease HI (Escherichia coli (strain K12)) (UniProt P0A7Y4) (assay: inhibition of bacterial ribonuclease H activity – biochemical, FRET RNA/DNA duplex cleavage, dose response (AID 365)). Conditions: E. coli RNase H, FRET RNA/DNA cleavage fluorescence.
Chain of Ribonuclease HI (Escherichia coli (strain K12)) (P0A7Y4 whole entry, looked up): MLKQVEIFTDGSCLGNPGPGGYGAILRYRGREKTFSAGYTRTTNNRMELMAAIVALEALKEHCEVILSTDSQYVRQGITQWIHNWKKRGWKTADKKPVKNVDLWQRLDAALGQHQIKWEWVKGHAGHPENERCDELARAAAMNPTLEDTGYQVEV
In the case of `O=C1/C(=C/c2ccco2)C(=O)N(c2ccc(Br)cc2)C(=S)N1c1ccccc1`, the IC50 is reported as “inactive”. In the case of `CC(C)=CCC[C@]1(C)[C@@H](CC=C(C)C)C[C@@]2(CC=C(C)C)C(=O)/C(=C(\O)c3ccc(O)c(O)c3)C(=O)[C@]1(CC=C(C)C)C2=O`, the IC50 is reported as 2.1 µM. In the case of `O=C(Cc1ccccc1Cl)c1ccc(O)c(O)c1O`, the IC50 is reported as “inactive”. `Cc1cc(-c2ccco2)c(C#N)c(SCC(=O)c2ccc(O)c(O)c2)n1` showed an IC50 of 1.1 µM. With `COC(=O)c1cc2c3c(ccc2[nH]1)N(C(=O)c1cc2c4c(ccc2[nH]1)N(C(=O)c1cc2c5c(ccc2[nH]1)N(C(N)=O)CC5)CC4)CC3` the IC50 was “inactive”. In the case of `O=C1c2ccc(O)cc2C(=O)c2c1ccc(O)c2O`, the IC50 is reported as “inactive”. With `O=C(CSc1nc2ccccc2s1)c1sc2sc3ccccc3[n+]2c1[O-]` the IC50 was 0.6 µM. `COc1ccc(C(=O)NC(=S)Nc2ccc3nn(-c4ccc(C)c(Cl)c4)nc3c2)cc1[N+](=O)[O-]` was tested, and the IC50 was “inactive”. `O=C1C(Cl)=C(Nc2ccc(S(=O)(=O)Nc3ccccn3)cc2)C(=O)c2ccccc21` was tested, and the IC50 was 80 µM.
